“And” between values parts separate entries of the source, which are not always exact repeats. Identical values can stand only once. Like-named read-outs stand apart in the source and are kept apart here.
How the values were obtained:
HDAC1 = HDAC1 (Homo sapiens, UniProt Q13547); assay: in vitro biochemical HDAC inhibition assay; settings: read-out: IC50 HDAC1
HDAC2 = HDAC2 (Homo sapiens, UniProt Q92769); assay: in vitro biochemical HDAC inhibition assay; settings: read-out: IC50 HDAC2
HDAC3 = HDAC3 (Homo sapiens, UniProt O15379); assay: in vitro biochemical HDAC inhibition assay; settings: for IC50: read-out: IC50 HDAC3
Chain of HDAC3 (O15379 whole entry): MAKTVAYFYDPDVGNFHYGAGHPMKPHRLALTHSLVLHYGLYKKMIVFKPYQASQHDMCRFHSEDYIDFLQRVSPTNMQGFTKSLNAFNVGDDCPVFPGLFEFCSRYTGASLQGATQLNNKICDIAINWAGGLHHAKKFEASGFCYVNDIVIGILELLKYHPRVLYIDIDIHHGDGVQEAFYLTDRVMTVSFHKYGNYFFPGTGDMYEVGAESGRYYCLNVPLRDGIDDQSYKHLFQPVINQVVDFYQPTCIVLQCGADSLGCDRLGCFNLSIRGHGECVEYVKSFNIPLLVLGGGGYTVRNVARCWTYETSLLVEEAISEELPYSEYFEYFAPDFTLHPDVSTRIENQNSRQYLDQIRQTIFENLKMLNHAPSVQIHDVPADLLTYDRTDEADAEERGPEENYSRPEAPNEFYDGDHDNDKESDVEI
Chain of HDAC3 (Q9Y618 395-489 partner limits assumed): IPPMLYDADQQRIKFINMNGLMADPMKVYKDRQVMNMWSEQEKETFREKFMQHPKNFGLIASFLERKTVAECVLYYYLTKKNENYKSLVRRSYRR

Gata2 mRNA = assay: induction of Gata2 mRNA in erythroid progenitors by HDAC1,2 inhibitors; also: test concentration or dose not given here; format: cell-based, human; settings: erythroid progenitors differentiated 3 days with compound; FIG. 2A-C
Source text: Human bone marrow derived CD34+ cells were expanded for 7 days as described by Sankaran et al., Science, vol. 322(5909), pp. 1839-42 (2008). Cells were then differentiated, in the presence of the indicated compound (i.e., Compounds 001, Compound Y, Compound 2005, Compound 2004, Compound 2003), for 3 days in media supporting erythropoiesis (Hu et al., “Isolation and functional characterization of human erythroblasts at distinct stages: implications for understanding of normal and disordered erythropoiesis in vivo”, Blood, vol. 121(16), pp. 3246-53 ([…])). FIG. 2A, FIG. 2B, and FIG. 2C each represents an experimental series performed on different days and with different donor cells.

Chain of HDAC1 (Q13547 whole entry): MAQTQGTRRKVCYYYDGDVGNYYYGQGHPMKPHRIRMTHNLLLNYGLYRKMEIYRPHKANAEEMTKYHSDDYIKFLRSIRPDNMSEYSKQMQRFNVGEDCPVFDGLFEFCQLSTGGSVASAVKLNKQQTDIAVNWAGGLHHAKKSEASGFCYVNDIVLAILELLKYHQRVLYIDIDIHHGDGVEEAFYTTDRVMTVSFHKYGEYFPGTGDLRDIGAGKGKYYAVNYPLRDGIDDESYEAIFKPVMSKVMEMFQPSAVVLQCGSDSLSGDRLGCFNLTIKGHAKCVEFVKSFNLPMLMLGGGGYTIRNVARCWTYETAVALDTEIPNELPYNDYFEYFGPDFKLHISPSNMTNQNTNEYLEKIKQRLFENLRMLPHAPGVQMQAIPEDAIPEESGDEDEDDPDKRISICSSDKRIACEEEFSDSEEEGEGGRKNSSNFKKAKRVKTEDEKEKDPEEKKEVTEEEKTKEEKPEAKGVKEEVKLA
Chain of HDAC2 (Q92769 whole entry): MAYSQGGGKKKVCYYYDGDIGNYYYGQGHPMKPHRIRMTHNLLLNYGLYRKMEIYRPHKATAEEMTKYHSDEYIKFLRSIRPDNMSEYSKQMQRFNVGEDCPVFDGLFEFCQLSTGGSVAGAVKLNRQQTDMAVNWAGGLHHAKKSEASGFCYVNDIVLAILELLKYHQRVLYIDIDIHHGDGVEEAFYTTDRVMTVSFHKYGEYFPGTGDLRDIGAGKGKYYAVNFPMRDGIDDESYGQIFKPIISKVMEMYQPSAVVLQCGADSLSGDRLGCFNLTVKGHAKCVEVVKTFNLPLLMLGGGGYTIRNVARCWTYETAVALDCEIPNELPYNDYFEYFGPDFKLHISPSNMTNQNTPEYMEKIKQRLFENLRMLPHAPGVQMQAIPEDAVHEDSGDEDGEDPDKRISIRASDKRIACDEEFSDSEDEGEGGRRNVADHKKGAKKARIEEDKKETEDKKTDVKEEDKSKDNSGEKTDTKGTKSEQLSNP

IC50 (HDAC1; Table 2) | IC50 (HDAC2; Table 2) | IC50 (HDAC3; Table 2) | IC50 (HDAC1; Table 4) | IC50 (HDAC2; Table 4) | IC50 (HDAC3; Table 4) | IC50 HDAC3 (HDAC3; Table 2) | SMILES | Gata2 mRNA (Gata2 mRNA)
> 2000 nM | > 2000 nM | > 2000 nM |  |  |  |  | COCCn1cc(C2CC2)c2cc(C(=O)Nc3cc(-c4ccccc4)ccc3N)ccc21 [N-(4-amino-[1,1′-biphenyl]-3-yl)-3-cyclopropyl-1-(2-methoxyethyl)-1H-indole-5-carboxamide] | 
944 nM | 667 nM | > 2000 nM |  |  |  |  | COCCN(C)c1cc2ncc(C(=O)Nc3cc(-c4cccs4)ccc3N)cc2cc1C1CC1 [N-(2-amino-5-(thiophen-2-yl)phenyl)-6-cyclopropyl-7-((2-methoxyethyl)(methyl)amino)quinoline-3-carboxamide] | 
3.1 nM | 14 nM | 99 nM |  |  |  |  | Nc1ccc(-c2cccs2)cc1NC(=O)c1cnc2c(C3CC3)c(N3CCNCC3)ccc2c1 [N-(2-amino-5-(thiophen-2-yl)phenyl)-8-cyclopropyl-7-(piperazin-1-yl)quinoline-3-carboxamide] | 
15 nM | 70 nM | 689 nM |  |  |  |  | Nc1ccc(-c2ccccc2)cc1NC(=O)c1ccc2c(c1)cc(C1CC1)n2CCN1CCOCC1 [N-(4-amino-[1,1′-biphenyl]-3-yl)-2-cyclopropyl-1-(2-morpholinoethyl)-1H-indole-5-carboxamide] | 
 |  |  | 1400 nM | > 2000 nM | 23 nM |  | Nc1ccccc1NC(=O)c1ccc(N2CCNCC2)cc1C1CC1 [Compound 2006] | 
6.8 nM | 31 nM | 373 nM |  |  |  |  | Nc1ccc(-c2ccccc2)cc1NC(=O)c1cnc2c(ccn2CCN2CCOCC2)c1 [N-(4-amino-[1,1′-biphenyl]-3-yl)-1-(2-morpholinoethyl)-1H-pyrrolo[2,3-b]pyridine-5-carboxamide] | 
 |  |  | 85 nM | 79.1 nM | 491 nM |  | CN1CCN(c2ccc(C(=O)Nc3cc(-c4ccccc4)ccc3N)cc2C2CC2)CC1 [Compound 2003] | induction of Gata2 mRNA
 |  |  | 11.2 nM | 8.9 nM | 207 nM |  | Nc1ccc(-c2cccs2)cc1NC(=O)c1ccc(N2CCNCC2)cc1C1CC1 [Compound 2004] | induction of Gata2 mRNA
 |  |  | 10.2 nM | 14.1 nM | 673 nM |  | CC1(Nc2ncc(C(=O)Nc3cc(-c4cccs4)ccc3N)cn2)CCN(C(=O)N2CCCC2)CC1 [Compound 2005] | induction of Gata2 mRNA
 |  |  | 14 nM | 21.9 nM | 136 nM |  | Nc1ccc(-c2cccs2)cc1NC(=O)/C=C/c1ccc(N2CCNCC2)c(C2CC2)c1 [Compound 2002] | induction of Gata2 mRNA
 |  |  | 27.3 nM | 32.3 nM | 218 nM |  | Nc1ccc(-c2ccccc2)cc1NC(=O)/C=C/c1ccc(N2CCNCC2)c(C2CC2)c1 [Compound 2001] | induction of Gata2 mRNA
11 nM | 23 nM | 477 nM |  |  |  |  | Nc1ccc(-c2ccccc2)cc1NC(=O)c1ccc2nn(CCN3CCOCC3)cc2c1 [N-(4-amino-[1,1′-biphenyl]-3-yl)-2-(2-morpholinoethyl)-2H-indazole-5-carboxamide] | 
> 2000 nM | 681 nM | 1900 nM |  |  |  |  | Nc1ccc(-c2ccccc2)cc1NC(=O)c1ccc2c(c1)c(C1CC1)cn2CCN1CCOCC1 [N-(4-amino-[1,1′-biphenyl]-3-yl)-3-cyclopropyl-1-(2-morpholinoethyl)-1H-indole-5-carboxamide] | 
652 nM | > 2000 nM |  |  |  |  | HDAC3 = No inhibition | Nc1ccc(-c2ccccc2)cc1NC(=O)c1cnc2c(C3CC3)c(NCc3ccccc3)ccc2c1 [N-(4-amino-[1,1′-biphenyl]-3-yl)-7-(benzylamino)-8-cyclopropylquinoline-3-carboxamide] | 
1970 nM | 336 nM | 798 nM |  |  |  |  | Nc1ccc(-c2ccccc2)nc1NC(=O)c1cnc2cc(N3CCNCC3)ccc2c1 [N-(3-amino-6-phenylpyridin-2-yl)-7-(piperazin-1-yl)quinoline-3-carboxamide] | 
> 2000 nM | 624 nM | 104 nM |  |  |  |  | Nc1ccccc1NC(=O)c1ccc2nc(N3CCNCC3)ccc2c1 [N-(2-aminophenyl)-2-(piperazin-1-yl)quinoline-6-carboxamide] | 
103 nM | 56 nM | 257 nM |  |  |  |  | Nc1ccc(-c2ccccc2)cc1NC(=O)c1cnc2c(N3CCNCC3)c(C3CC3)ccc2c1 [N-(4-amino-[1,1′-biphenyl]-3-yl)-7-cyclopropyl-8-(piperazin-1-yl)quinoline-3-carboxamide] | 

IC50 (HDAC1; Table 2) | IC50 (HDAC2; Table 2) | IC50 (HDAC3; Table 2) | IC50 (HDAC1; Table 4) | IC50 (HDAC2; Table 4) | IC50 (HDAC3; Table 4) | IC50 HDAC3 (HDAC3; Table 2) | SMILES | Gata2 mRNA (Gata2 mRNA)
89 nM | 243 nM | 1550 nM |  |  |  |  | COCCNc1cc2ncc(C(=O)Nc3cc(-c4cccs4)ccc3N)cc2cc1C1CC1 [N-(2-amino-5-(thiophen-2-yl)phenyl)-6-cyclopropyl-7-((2-methoxyethyl)amino)quinoline-3-carboxamide] | 
1210 nM | 193 nM | 171 nM |  |  |  |  | Nc1sc(-c2ccccc2)cc1NC(=O)c1cnc2cc(N3CCNCC3)ccc2c1 [N-(2-amino-5-phenylthiophen-3-yl)-7-(piperazin-1-yl)quinoline-3-carboxamide] | 
 |  |  | 12 nM | 16.8 nM | 511 nM |  | CC1(Nc2ccc(C(=O)Nc3cc(-c4ccncc4)ccc3N)cc2)CCN(C(=O)N2CCOCC2)CC1 [Compound 2010] | induction of Gata2 mRNA
7.1 nM | 11 nM | 175 nM |  |  |  |  | CN1CCN(CCn2ccc3cc(C(=O)Nc4cc(-c5ccccc5)ccc4N)ccc32)CC1 [N-(4-amino-[1,1′-biphenyl]-3-yl)-1-(2-(4-methylpiperazin-1-yl)ethyl)-1H-indole-5-carboxamide] | 
1230 nM | 1190 nM and 1880 nM |  |  |  |  |  | Nc1cnc(-c2ccccc2)cc1NC(=O)c1cnc2cc(N3CCNCC3)ccc2c1 [N-(5-amino-2-phenylpyridin-4-yl)-7-(piperazin-1-yl)quinoline-3-carboxamide] | 
 |  |  |  |  |  |  | Nc1ccc(-c2ccncc2)cc1NC(=O)c1ccc2c(c1)cc(C1CC1)n2CCN1CCOCC1 [Compound Y] | induction of Gata2 mRNA
 |  |  | 7.27 nM | 25.9 nM | 195 nM |  | CC1(Nc2ncc(C(=O)Nc3cc(-c4cccs4)ccc3N)cn2)CCN(C(=O)N2CCNCC2)CC1 [Compound 2008] | induction of Gata2 mRNA
7 nM | 12 nM | 71 nM |  |  |  |  | Nc1ccc(-c2cccs2)cc1NC(=O)c1ccc2nc(N3CCNCC3)cnc2c1 [N-(2-amino-5-(thiophen-2-yl)phenyl)-2-(piperazin-1-yl)quinoxaline-6-carboxamide] | 
> 2000 nM | 1220 nM | > 2000 nM |  |  |  |  | COCCN(C)c1cc2ncc(C(=O)Nc3cc(-c4ccccc4)ccc3N)cc2cc1C1CC1 [N-(4-amino-[1,1′-biphenyl]-3-yl)-6-cyclopropyl-7-((2-methoxyethyl)(methyl)amino)quinoline-3-carboxamide] | 
 |  |  | 8.53 nM | 31.5 nM | 259 nM |  | CN1CCN(C(=O)N2CCC(C)(Nc3ncc(C(=O)Nc4cc(-c5cccs5)ccc4N)cn3)CC2)CC1 [Compound 2009] | 
> 2000 nM | 1560 nM | > 2000 nM |  |  |  |  | COCCOc1cc2ncc(C(=O)Nc3cc(-c4ccccc4)ccc3N)cc2cc1C1CC1 [N-(4-amino-[1,1′-biphenyl]-3-yl)-6-cyclopropyl-7-(2-methoxyethoxy)quinoline-3-carboxamide] | 
 |  |  | 14.9 nM | 55.5 nM | 284 nM |  | Nc1ccc(-c2cccs2)cc1NC(=O)c1cnc(NC2CCN(C(=O)N3CCOCC3)CC2)nc1 [Compound 2007] | induction of Gata2 mRNA
7.8 nM | 15 nM | 164 nM |  |  |  |  | Nc1ccc(-c2ccccc2)cc1NC(=O)c1cnc2c(C3CC3)c(N3CCNCC3)ccc2c1 [N-(4-amino-[1,1′-biphenyl]-3-yl)-8-cyclopropyl-7-(piperazin-1-yl)quinoline-3-carboxamide] | 
295 nM | 799 nM | > 2000 nM |  |  |  |  | Nc1ccc(-c2ccccc2)cc1NC(=O)c1cnc2c(C3CC3)c(N3CCOCC3)ccc2c1 [N-(4-amino-[1,1′-biphenyl]-3-yl)-8-cyclopropyl-7-morpholinoquinoline-3-carboxamide] | 
 | 301 nM | > 2000 nM |  |  |  |  | COCCNc1ccc2cc(C(=O)Nc3cc(-c4ccccc4)ccc3N)cnc2c1C1CC1 [N-(4-amino-[1,1′-biphenyl]-3-yl)-8-cyclopropyl-7-((2-methoxyethyl)amino)quinoline-3-carboxamide] | 
7.4 nM | 19 nM | 344 nM |  |  |  |  | Nc1ccc(-c2ccccc2)cc1NC(=O)c1ccc2c(cnn2CCN2CCOCC2)c1 [N-(4-amino-[1,1′-biphenyl]-3-yl)-1-(2-morpholinoethyl)-1H-indazole-5-carboxamide] | 
> 2000 nM | > 2000 nM | > 2000 nM |  |  |  |  | Nc1cc(-c2ccccc2)sc1NC(=O)c1cnc2cc(N3CCNCC3)ccc2c1 [N-(3-amino-5-phenylthiophen-2-yl)-7-(piperazin-1-yl)quinoline-3-carboxamide] | 

— patent US20160137630A1, “INDUCTION OF GATA2 BY HDAC1 AND HDAC2 INHIBITORS” (ACETYLON PHARMACEUTICALS, INC., priority 2014, published 2016)
